Measured values: US20200109421A1, “METHODS FOR INTEGRATION OF TRANSGENE DNA” (Selexis S.A., priority 2018, published 2020)
Entries after “also recorded” stand apart in the source; their conditions may differ.

Assays:
SURE CHO-M cell line [1] = assay: Cell cycle analysis of CHO cells by propidium iodide DNA content flow cytometry; assay type: cell-based, Chinese hamster; details: overnight in medium; DMSO 1%, APH 1 μM, MTX 1 uM, NOCO 1.5 μM
Procedure: SURE CHO-M cell™ line (SELEXIS SA, Switzerland, see: U.S. Pat. Nos. 7,129,062, 8,252,917 and 9,879,297, and U.S. Patent Applications No. 20110061117 and 20120231449, the disclosures of which are incorporated herein by reference in their entirety) were cultivated overnight in asynchronous condition (FIG. 1A) or in presence of DMSO 1%, aphidicholin (APH) 1 μM, methotrexate (MTX) 1 uM or nocodazole (NOCO) 1.5 μM (FIG. 1B). Cells were then fixed in ethanol and labelled overnight at 4° C. with propidium iodide (PI; 50 μg/ml, Sigma) in presence of RNAse (0.5 μg/ml, Sigma). DNA content index histograms were acquired on Guava EasyCyte System® using INCYTE acquisition software. Each phase of cell cycle was defined according to the drug treatment as G1 arrest (DMSO); S phase (APH); G2 (NOCO). The % of G0/G1, % of S and % of G2/M arrested cells were then calculated (see Table FIG. 1B).
Cell cycle was analyzed by flow cytometry at release (18 h with drug) and at 1, 2, 4, 6 and 8 h after release. Released cells were then further cultivated according to the indicated time points. Asynchronous (control) cells were included as controls. DNA content index histograms were acquired on Guava EasyCyte System® (MILLIPORE) using INCYTE acquisition software.

SURE CHO-M cells [2] = assay: Cell synchronization with plasmid or CRISPR/Cas-mediated transgene integration: fed-batch PCD; set-up: species or system Chinese hamster; details: G1 synchronization, DMSO 1% overnight, plasmid-based and CRISPR/Cas9-mediated expression system
Procedure: Asynchronous and synchronized cells were transfected with IgG-trastuzumab expressing vectors and cultivated under antibiotic selection for 10 days.
Stable expressing pools were subcultivated in complete culture medium for 4 subsequent passages in spin tubes (5 ml wv) (FIG. 4B). Cell density (Cv·ml^−1) and IgG titer values (μg·ml^−1) were determined. […] Growth and performance of each stable established IgG-expressing pool was then evaluated in spin tube in a 9-day fedbatch process using Acto CHO A+B feed (GE Healthcare). Fed-batch cultures were initiated at cell concentrations of 0.3×10^6 cells/ml in 5 mL working volume run. (FIG. 4C). The specific IgG productivity was determined as the slope of IgG concentration versus the integral number of viable cells (IVCD) and expressed as pg per cell and per day (pcd). Histograms represented the fold change of productivity per cell per day (PCD) obtained for DMSO and 4° C. pre-treatment compared to their respective untreated-controls cells.

SURE CHO-M cells [3] = assay: Cell synchronization combined with DNA repair pathway modulators: CSA of trastuzumab IgG-producing cells; assay type: cell-based, Chinese hamster; details: for proportion of high-expressing cells: immediately after transfection, in combination with S and G2 arrest
Procedure: Freshly transfected cells were incubated in presence of various NHEJ, HR, MMEJ or SSA modulators immediately after electroporation to identify the DNA repair pathway involved in transgene integration and depending on the targeted cell cycle phase.

SURE CHO-M cell line [4] = assay: eGFP expression after transfection of synchronized CHO cells (cytometer imager); assay type: cell-based, Chinese hamster; details: day 2 and day 11 after transfection; synchronized prior to transfection vs non-synchronized cells
Procedure: (§1) Asynchronous and synchronized SURE CHO-M cell™ lines (SELEXIS SA, Switzerland) were transfected with eGFP- (FIG. 1E) or Trastuzumab IgG-expression SLX-vectors (FIG. 1F and FIG. 1G) immediately after drugs release. Transfection was done by microporation (NEON TRANSFECTION SYSTEM, INVITROGEN), generating a heterogeneous pool of transfected cells. 24 h after transfection, 5 ug/ml puromycin selection agent (GIBCO) was added to the BalanCD medium (IRVINE) supplemented with 6 mM L-Glutamine (HYCLONE). Expression pools performances were then evaluated for GFP or IgG at different time points after transfection. The percentage and GFP fluorescence mean intensity (FMI) level were evaluated on cytometer imager at d2 and d11 post-transfection (CELIGO S; NEXCELOM). Results were represented as fold change of control cells (FIG. 1E; histograms).

SURE CHO-M cells [5] = assay: Cell recovery during antibiotic selection after synchronization and DNA repair modulation; details: S- and G2-synchronized cells, with DNA repair pathways inhibition
Procedure: SURE CHO-M cells™ (SELEXIS SA, Switzerland) were synchronized overnight with DMSO 1%, aphidicolin (APH) 1 μM, methotrexate (MTX) 1 μM or nocodazole (NOCO) 1.5 μM. After 18 hrs of incubation, cells were centrifuged, rinse twice into PBS 1× and resuspended in complete culture medium. Asynchronous and synchronized cells were transfected with trastuzumab IgG-plasmid expressing vector. Freshly transfected cells were then immediately resuspended and incubated overnight in presence of NU7441, RI-1, RS-1 or Olaparib small molecules (drugs provided by TOCRIS, CALBIOCHEM or APEXBIO TECHNOLOGY) before to change medium and start antibiotic selection.
Cell recovery behavior during antibiotic selection was monitored for each transfection condition and recorded as + or − signs.

SURE CHO-M cell line [6] = assay: Cell Secretion Assay (CSA) of Trastuzumab IgG-producing cells after synchronization; assay type: cell-based, Chinese hamster; details: 2 days post-transfection; vs asynchronized cells
Procedure: as §1
The percentage and secretion mean intensity (SMI) of IgG-producing cells were determined at d2 (FIG. 1F) and d10 (FIG. 1G) post-transfection using Cell Secretion Assay methods (CSA).

SURE CHO-M cells [7] = assay: Nu7441 treatment before transfection: productivity in 9-day fedbatch (ELISA titer, PCD); assay type: cell-based, Chinese hamster; details: 0.4 μM just before transfection
Procedure: SURE CHO-M cells™ (SELEXIS SA, Switzerland) were treated with 0.4 μM of DNA-PK inhibitor Nu7441 (TOCRIS) just before transfection of 3 μg of the antibody DNA fragment, respectively Trastuzumab (Tras) or Adalimumab (ADA). Transfection was done by microporation (Neon Transfection system, Invitrogen). 24 h after transfection, 5 μg/ml puromycin selection agent (Gibco) was added.
Growth and performance of the 6 top clones of each enzymatic condition were evaluated in spin tube in a 9-day fedbatch process using Acto CHO A+B feed (GE Healthcare). Fed-batch cultures were initiated at cell concentrations of 0.3×10^6 cells/ml in 5 mL working volume run. Cell density and cell viability along the process were evaluated by using a Guava System (Millipore) and supernatant sample was collected. Antibody product titer was evaluated by ELISA capture assay against the collected supernatant, at day 9 of the fedbatch process. Productivity per cell per day (PCD) was calculated as function of titer and viable cell density during the fedbatch process.

SURE CHO-M cells [8] = assay: IgG transfection in presence of Sbf1 restriction enzyme and NU7441: CSA of stable cells; assay type: cell-based, Chinese hamster; details: Sbf1 present
Procedure: Asynchronized (AS) or G1-synchronized (G1) SURE CHO-M cells' (SELEXIS SA, Switzerland) were transfected with trastuzumab IgG-expressing vector in presence of Sbf1 restriction enzyme. Transfected cells were incubated overnight in presence of the NHEJ inhibitor—NU7441 ([…])—before change of medium and start antibiotic selection. The histograms show cell secretion assay (CSA) as percentage (white bar) and secretion mean intensity (SMI) (grey bar) of total producing cells (FIG. 6A) or of the high-, medium- and low-producing subpopulations (FIG. 6B) performed on stable trastuzumab-expressing cells.

[9] = after 10 days of antibiotic selection, NU7441 0.4 mM overnight, AS_NU and G1_NU vs AS and G1

Question: With `C[C@@]1(CO)[C@H](O)CC[C@@]2(C)[C@H]1CC[C@H]1C[C@@H]3C[C@@]12CC[C@]3(O)CO` [APH, aphidicolin] as the compound, how does the “cell cycle phase at which cells are arrested” value (“cell cycle phase” below) (SURE CHO-M cell line [1]) read?
Answer: Its value is “S phase”.

Question: With `C[S+](C)[O-]` [DMSO, dimethyl sulfoxide] as the compound, how does the “productivity (fold change of PCD vs untreated control cells)” value (SURE CHO-M cells [2]) read?
Answer: Its value is “significant increase”.

Question: What about the “high-producing subpopulation (% HP) of stable IgG-producing cells” value (SURE CHO-M cells [3]; after 10 days of antibiotic selection, G1-synchronized, with or without DNA repair modulators, vs asynchronous controls) of the same compound?
Answer: Its value is “increase”.

Question: What about the “cell cycle phase” value (SURE CHO-M cell line [1]) of the same compound?
Answer: The value was “G1 arrest; also recorded: G1 phase”.

Question: For `CN(Cc1cnc2nc(N)nc(N)c2n1)c1ccc(C(=O)N[C@@H](CCC(=O)O)C(=O)O)cc1` [MTX, methotrexate], which “mean intensity of GFP-expressing cells” value (SURE CHO-M cell line [4]) is on record?
Answer: The value was “higher”.

Question: What about the “percentage of GFP-expressing cells” value (SURE CHO-M cell line [4]) of the same compound?
Answer: Its value is “higher”.

Question: What about the “cytotoxic effect (cells failed to pass the antibiotic selection)” value (SURE CHO-M cells [5]) of the same compound?
Answer: The value was “lethal cytotoxic effect”.

Question: And the “cell cycle phase” value (SURE CHO-M cell line [1])?
Answer: Its value is “G1/S phase”.

Question: What about the “% of Trastuzumab-expressing cells” value (SURE CHO-M cell line [6]) of the same compound?
Answer: Its value is “higher”.

Question: And the “mean intensity of Trastuzumab-expressing cells” value (SURE CHO-M cell line [6])?
Answer: Its value is “higher”.

Question: With `COC(=O)Nc1nc2ccc(C(=O)c3cccs3)cc2[nH]1` [NOCO, nocodazole] as the compound, how does the “mean intensity of GFP-expressing cells” value (SURE CHO-M cell line [4]) read?
Answer: Its value is “higher”.

Question: And the “percentage of GFP-expressing cells” value (SURE CHO-M cell line [4])?
Answer: The value was “higher”.

Question: What about the “cytotoxic effect (cells failed to pass the antibiotic selection)” value (SURE CHO-M cells [5]) of the same compound?
Answer: The value was “lethal cytotoxic effect”.

Question: What about the “% of Trastuzumab-expressing cells” value (SURE CHO-M cell line [6]) of the same compound?
Answer: Its value is “higher”.

Question: What about the “mean intensity of Trastuzumab-expressing cells” value (SURE CHO-M cell line [6]) of the same compound?
Answer: The value was “higher”.

Question: What does the source list for `O=c1cc(N2CCOCC2)oc2c(-c3cccc4c3sc3ccccc34)cccc12` [Nu7441]?
Answer: productivity per cell per day (PCD) (SURE CHO-M cells [7]; Trastuzumab): clear increased; productivity per cell per day (PCD) (SURE CHO-M cells [7]; adalimumab): less evident; productivity (antibody product titer) (SURE CHO-M cells [7]; both antibody molecules (Trastuzumab, Adalimumab)): increase; high- and medium-producing cells subpopulations (SURE CHO-M cells [8]; G1 phase synchronized and Nu7441 treated, after 10 days selection): significant increase; mean intensity of IgG-expressing cells (SURE CHO-M cells [8]; [9]): higher; percentage of IgG-expressing cells (SURE CHO-M cells [8]; [9]): higher; proportion of IgG-producing cells (SURE CHO-M cells [8]; combination with G1 phase synchronization (G1_NU compared to AS)): best; proportion of high-expressing cells (SURE CHO-M cells [3]): higher

Question: For `O=C(c1cc(Cc2n[nH]c(=O)c3ccccc23)ccc1F)N1CCN(C(=O)C2CC2)CC1` [Olaparib], which “proportion of high-expressing cells” value (SURE CHO-M cells [3]) is on record?
Answer: The value was “higher”.

Question: For `O=C1C(Cl)=C(N2CCOCC2)C(=O)N1c1ccc(Cl)c(Cl)c1` [RI-1], which “proportion of high-expressing cells” value (SURE CHO-M cells [3]) is on record?
Answer: Its value is “higher”.
